In ChEMBL document CHEMBL4808180, “Identification of 2,2-Dimethylbutanoic Acid (HST5040), a Clinical Development Candidate for the Treatment of Propionic Acidemia and Methylmalonic Acidemia” (J Med Chem, 2021) one finds EC50 and Activity data, which are given here for 18 compounds.

One may read the EC50 as the concentration that produces a half-maximal response.

A short description of assay [1]: Reduction of propionyl-CoA in human hepatocytes derived from propionic acidemia patient pretreated for 30 mins followed by 13C-isoleucine addition and measured after 1 hr by MS/MS analysis. In kind it is functional, cell-based. The settings on record: hepatocyte.
Assay [2] can be described thus: Reduction of propionyl-CoA in human hepatocytes derived from propionic acidemia patient at 100 uM pretreated for 30 mins followed by 13C-isoleucine addition and measured after 1 hr by MS/MS analysis relative to control. The settings on record: time 90 min, 1.5 h. Also on record: scale not given: the % may be the effect or the level left. Type of assay: functional, Hepatocyte.

As for `O=C(O)C1CCCC1`, in assay [1], the EC50 came to 12.3 µM. Further, the Activity in assay [2] was determined as 42%.
For `O=C(O)CCCC(F)(F)F`, in that order: 9.91 µM and 65%.
For `CC(C)(C)C(=O)O` [PIVALATE], in that order: 5.53 µM and 77%.
On to `CCC(C)(C)C(=O)OC`, for which, in assay [1], the EC50 worked out at 1.73 µM. Also, the Activity in assay [2] came to 91%.
In the case of `CNCCC(=O)O`, the EC50 in assay [1] turned out to be 6.55 µM. The Activity in assay [2] amounted to 64%.
For `CC(C)(C)CC(=O)O` [T-BUTYLACETIC ACID], in that order: 0.91 µM and 97%.
The corresponding values for `CCC(C)(C)C(N)=O` are above 100 µM and 57%.
For `CCCC(C)C(=O)O` (stereo unspecified), the EC50 in assay [1] was determined as 12.6 µM. For the same compound, the Activity in assay [2] amounted to 77%.
As for `CCCC(CCC)C(=O)OC`, the EC50 in assay [1] is above 100 µM. Further, the Activity in assay [2] is reported as 63%.
The corresponding values for `CCCC(C)(C)C(=O)O` are 0.76 µM and 96%.
For `CC1(CC(=O)O)CC1`, in that order: 15.5 µM and 65%.
The corresponding values for `CCC(CC)C(=O)O` are 33.7 µM and 67%.
For `O=C(O)C1CCC1`, in assay [1], the EC50 worked out at 55.4 µM. For the same compound, in assay [2], the Activity was 49%.
With `CCCC(CC)C(=O)O` (stereo unspecified), the EC50 in assay [1] turned out to be 1.23 µM. For the same compound, the Activity in assay [2] turned out to be 98%.
For `O=C(O)C1CC1` [CYCLOPROPANE CARBOXYLIC ACID], in that order: 23.3 µM and 66%.
The corresponding values for `CSCCCC(=O)O` are 18.9 µM and 78%.
As for `CC(CCO)C(=O)O` (stereo unspecified), the EC50 in assay [1] is above 100 µM. For the same compound, the Activity in assay [2] turned out to be 66%.
The corresponding values for `COCC(C)(C)C(=O)O` are 2.69 µM and 75%.
